From article PMC8262356, “SLC26A6-selective inhibitor identified in a small-molecule screen blocks fluid absorption in small intestine” (JCI Insight, 2021)

Biological target: T1, ENaC (Homo sapiens, UniProt P37088+P51168+P51170)
T1 construct: endogenous in cells; host or cells: well-differentiated human bronchial epithelial (HBE) cells at air-liquid interface
T1 sequence (P37088 1-669): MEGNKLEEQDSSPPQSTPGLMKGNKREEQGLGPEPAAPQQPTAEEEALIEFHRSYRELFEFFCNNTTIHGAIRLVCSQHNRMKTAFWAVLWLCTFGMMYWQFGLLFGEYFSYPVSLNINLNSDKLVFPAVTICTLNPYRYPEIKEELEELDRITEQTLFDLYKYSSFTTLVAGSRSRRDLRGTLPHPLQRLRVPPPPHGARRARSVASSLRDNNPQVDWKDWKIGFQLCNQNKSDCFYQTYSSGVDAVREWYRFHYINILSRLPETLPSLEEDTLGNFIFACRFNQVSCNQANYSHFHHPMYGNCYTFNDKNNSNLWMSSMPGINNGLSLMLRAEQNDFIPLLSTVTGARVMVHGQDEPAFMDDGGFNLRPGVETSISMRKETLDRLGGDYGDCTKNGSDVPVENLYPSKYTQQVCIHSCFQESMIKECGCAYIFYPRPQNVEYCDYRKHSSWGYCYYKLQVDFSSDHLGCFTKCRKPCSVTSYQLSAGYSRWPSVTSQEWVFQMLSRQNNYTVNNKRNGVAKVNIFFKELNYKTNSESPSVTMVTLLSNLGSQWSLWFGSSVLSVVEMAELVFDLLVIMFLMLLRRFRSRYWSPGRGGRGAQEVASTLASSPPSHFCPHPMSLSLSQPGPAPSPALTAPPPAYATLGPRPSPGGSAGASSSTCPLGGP
T1 sequence (P51168 1-640): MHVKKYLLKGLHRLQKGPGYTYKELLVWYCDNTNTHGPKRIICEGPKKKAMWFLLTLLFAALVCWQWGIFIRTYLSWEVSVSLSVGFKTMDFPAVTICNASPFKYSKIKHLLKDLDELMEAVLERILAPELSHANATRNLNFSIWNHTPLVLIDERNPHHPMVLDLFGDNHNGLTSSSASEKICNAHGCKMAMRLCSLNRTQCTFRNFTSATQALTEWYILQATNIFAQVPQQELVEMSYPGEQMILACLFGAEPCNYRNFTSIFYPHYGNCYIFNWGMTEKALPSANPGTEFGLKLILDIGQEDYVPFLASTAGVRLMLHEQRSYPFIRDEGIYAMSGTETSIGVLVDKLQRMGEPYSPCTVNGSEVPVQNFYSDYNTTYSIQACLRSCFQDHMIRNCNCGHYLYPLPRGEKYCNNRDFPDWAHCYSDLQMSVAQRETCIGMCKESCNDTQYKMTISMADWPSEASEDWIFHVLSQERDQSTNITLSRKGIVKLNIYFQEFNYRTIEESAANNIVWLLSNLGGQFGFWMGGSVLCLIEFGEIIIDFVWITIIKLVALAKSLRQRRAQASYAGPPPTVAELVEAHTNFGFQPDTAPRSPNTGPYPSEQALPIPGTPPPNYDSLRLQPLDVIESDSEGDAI
T1 sequence (P51170 1-649): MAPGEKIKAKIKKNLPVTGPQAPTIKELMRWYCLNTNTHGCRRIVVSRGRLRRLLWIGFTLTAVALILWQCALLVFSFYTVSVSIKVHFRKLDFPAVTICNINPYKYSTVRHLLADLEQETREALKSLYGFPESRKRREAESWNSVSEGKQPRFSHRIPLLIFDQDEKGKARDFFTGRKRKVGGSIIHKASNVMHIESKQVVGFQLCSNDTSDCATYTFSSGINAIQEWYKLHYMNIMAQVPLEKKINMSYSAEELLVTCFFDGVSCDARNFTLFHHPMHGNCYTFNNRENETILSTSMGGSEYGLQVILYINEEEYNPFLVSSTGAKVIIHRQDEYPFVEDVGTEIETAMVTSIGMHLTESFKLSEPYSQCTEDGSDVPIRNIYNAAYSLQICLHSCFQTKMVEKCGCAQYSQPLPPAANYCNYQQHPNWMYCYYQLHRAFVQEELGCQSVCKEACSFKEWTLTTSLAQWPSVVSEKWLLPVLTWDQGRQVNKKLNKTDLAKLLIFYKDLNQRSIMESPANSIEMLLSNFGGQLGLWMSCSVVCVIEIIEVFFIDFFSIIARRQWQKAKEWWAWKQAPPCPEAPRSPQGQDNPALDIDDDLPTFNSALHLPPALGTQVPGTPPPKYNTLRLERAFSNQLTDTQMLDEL
Experiment: Short-circuit current in well-differentiated HBE cells, amiloride response
Assay type: cell-based
Conditions: 25 μM pretreatment
Description: PAT1inh-B01 selectivity was studied by testing its effects on related SLC26A family anion transporters and the Cl^– channel TMEM16A. These measurements used a similar Cl^–/I^– exchange protocol, but FRT cells separately expressed each of the SLC26A family members or TMEM16A. […] PAT1inh-B01 selectivity was also tested by short-circuit current (Isc) in well-differentiated human bronchial epithelial (HBE) cells, which have a complex ion transport mechanism that includes cystic fibrosis transmembrane conductance regulator (CFTR), epithelial Na^+ channel (ENaC), and Ca^+2-activated chloride channels (CaCCs) ([13]). […] Potential PAT1inh-B01 cytotoxicity was studied in FRT cells.
Figure 3 PAT1inh-B01 selectivity and cytotoxicity. […] Cl^–/I^– exchange or I^– influx measured in FRT cells coexpressing YFP and SLC26A isoforms or TMEM16A, with data shown for 25 μM PAT1inh-B01, DMSO vehicle control, and 500 μM niflumic acid (positive control for SLC26A transporters) or 10 μM TMinh-23 (positive control for TMEM16A). […] (C) (left) Short-circuit current (Isc) in well-differentiated HBE cells measured in the absence (top) and presence (bottom) of 25 μM PAT1inh-B01. […]
YFP-based cellular assays of slc26a3, slc26a4, SLC26A9, and TMEM16A function were performed as described previously ([7]). […] The activities of ENaC, CFTR, and CaCC were determined using well-differentiated HBE cells as described previously ([13]). […]

effect on ENaC activity (Isc response to amiloride): no significant effect
SMILES: Cc1c(Br)c(C(F)(F)F)nn1CC(=O)N1CCc2nc3cc(-c4ccccc4)[nH]n3c(=O)c2C1 [PAT1inh-B01]
